# Experimental data from patent publication US11299493B2, “Heterocyclic compounds and uses thereof” (NUVATION BIO INC., priority 2017, dated 2022).
# Tests used:
# A427 cells = assay: Cytotoxicity assay (resazurin) in A427 cells; type: cell-based; settings: Homo sapiens, A-427, 72 h, A427, 72 hr, read-out: Cell Viability IC50 A427
# Procedure: Cells were allowed to grow at 37° C. for 24 hr in 5% CO2 environment (culture conditions) in a Nuaire incubator (humidified). Serially diluted test compounds (100 μL) within the desired testing concentration ranges were added to the culture plate were further incubated in culture conditions for 72 hr and 96 hr for A427 and A549 respectively. The experiment was terminated at the designated incubation time by replacing the medium with 100 μL of 1 mM of resazurin (R7017; Sigma) prepared in respective culture medium, and the plates were further incubated in culture conditions for 4-6 hr. Fluorescence was recorded using a multimodal plate reader (Biotek Synergy Neo) at an excitation wavelength of 535 nm and emission wavelength of 590 nm to obtain relative fluorescence units. Data analysis was done by subtracting the background fluorescence (only medium blank) value from each reading and then normalizing with the vehicle control (DMSO treated cells) to obtain percent survival/proliferation. Percent survival was then subtracted by 100 to get the percent inhibition of proliferation which was used to calculate IC50 values.
# WEE1 kinase enzyme = WEE1 kinase enzyme (Homo sapiens (Human), UniProt P30291); assay: WEE1 IC50 determination, LanthaScreen Terbium Labeled TR-FRET kinase assay; type: biochemical; settings: WEE1 enzyme 1 nM, ATP 10 μM, 1 h
# Procedure: IC50 values of compounds against WEE1 kinase enzyme were determined by LanthaScreen™ Terbium Labeled TR-FRET assay. […] After 1 h, […] stop solution containing Terbium labeled antibody (4 nM) (#PV3529, Invitrogen, Life Technologies Grand Island, N.Y.) and EDTA (#E5134, Sigma, St-Louis, Mo.) (20 mM) in TR-FRET dilution buffer (#PV3574, Invitrogen, Life Technologies Grand Island, N.Y.) was added. Readings were taken in a Synergy Neo Plate reader (BioTek, Winooski) at single excitation of 340 nm and Dual emission at 495 nm and 520 nm respectively.
# The % activity of test samples was calculated as (Sample−Min)*100/(Max−Min). [Max: DMSO control, complete reaction with enzyme & DMSO and Min: No enzyme & DMSO].
# WEE1 kinase enzyme, sequence (P30291 whole entry): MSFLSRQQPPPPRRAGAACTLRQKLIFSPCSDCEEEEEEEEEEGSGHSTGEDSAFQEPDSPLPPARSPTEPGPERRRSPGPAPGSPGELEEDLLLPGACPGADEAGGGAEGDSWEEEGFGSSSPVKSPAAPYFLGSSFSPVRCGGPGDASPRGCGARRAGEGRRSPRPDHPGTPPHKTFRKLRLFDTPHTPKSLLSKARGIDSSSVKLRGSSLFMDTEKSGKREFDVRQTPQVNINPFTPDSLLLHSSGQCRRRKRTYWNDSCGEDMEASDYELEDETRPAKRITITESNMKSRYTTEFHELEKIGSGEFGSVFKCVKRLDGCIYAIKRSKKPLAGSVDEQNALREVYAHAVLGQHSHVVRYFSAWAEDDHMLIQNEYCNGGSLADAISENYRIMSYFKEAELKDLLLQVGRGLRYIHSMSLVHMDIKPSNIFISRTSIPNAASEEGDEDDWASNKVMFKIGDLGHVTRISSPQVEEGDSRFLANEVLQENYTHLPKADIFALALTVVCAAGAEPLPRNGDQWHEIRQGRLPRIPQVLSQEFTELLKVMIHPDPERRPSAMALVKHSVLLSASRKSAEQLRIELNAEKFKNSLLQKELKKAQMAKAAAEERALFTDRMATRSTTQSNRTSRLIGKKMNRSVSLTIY
IC50 (WEE1 kinase enzyme),SMILES,IC50 (A427 cells)
34 nM,CC(C)n1c(=O)c2cnc(Nc3ccc4c(c3)CCNC4)nc2n1-c1ccc(F)c(C(C)(C)O)c1 [Example 2.185],1540 nM
43 nM,CC(C)n1c(=O)c2cnc(Nc3ccc4c(c3)CNCC4)nc2n1-c1ccn(C)n1 [Example 2.292],13300 nM
49 nM,CC(C)n1c(=O)c2cnc(Nc3ccc4c(c3)CCNC4)nc2n1-c1ccn(C)n1 [Example 2.289],8760 nM
26 nM,CC(C)n1c(=O)c2cnc(Nc3ccc4c(c3)CCNC4(C)C)nc2n1-c1ccn(C2CC2)n1 [Example 2.643],2180 nM
6 nM,CC(C)n1c(=O)c2cnc(Nc3ccc4c(c3)CCNC4(C)C)nc2n1-c1cccc(N(C)S(C)(=O)=O)n1 [Example 2.642],2460 nM
5 nM,CC(C)n1c(=O)c2cnc(Nc3ccc4c(c3)CCN(C)C4)nc2n1-c1ccnc(C(C)(C)C)c1 [Example 2.644],2330 nM
5 nM,CC(C)n1c(=O)c2cnc(Nc3ccc4c(c3)CCNC4)nc2n1-c1cccc(N(C)S(C)(=O)=O)n1 [Example 2.645],4010 nM
46 nM,CC(C)n1c(=O)c2cnc(Nc3ccc4c(c3)CNCC4)nc2n1-c1ccc(F)cn1 [Example 2.291],7990 nM
48 nM,CC(C)n1c(=O)c2cnc(Nc3ccc4c(c3)CCNC4)nc2n1-c1ccn(C(C)(C)C)n1 [Example 2.454],
123 nM,CC(C)(F)c1cc(-n2c3nc(Nc4ccc5c(c4)CNCC5(C)C)ncc3c(=O)n2C2CC2)ccn1 [Example 2.605],5960 nM
153 nM,CC(C)(F)c1cc(-n2c3nc(Nc4ccc5c(c4)CCNC5(C)C)ncc3c(=O)n2C2CC2)ccn1 [Example 2.555],
179 nM,CC(C)n1c(=O)c2cnc(Nc3ccc4c(c3)CCNC4)cc2n1-c1ccnc(C(C)(C)C)c1 [Example 2.732],
10 nM,CC(C)n1c(=O)c2cnc(Nc3ccc4c(c3)CCNC4)nc2n1-c1ccsc1 [Example 2.647],2650 nM
12 nM,CC(C)n1c(=O)c2cnc(Nc3ccc4c(c3)CCNC4(C)C)nc2n1-c1ccnc(C(C)(C)F)c1 [Example 2.187],435 nM
120 nM,CC(C)n1c(=O)c2cnc(Nc3ccc4c(c3)CNCC4)nc2n1-c1cc(C(C)(C)C)ccn1 [Example 2.287],1960 nM
25 nM,CC(C)(C)c1cc(-n2c3nc(Nc4ccc5c(c4)CNCC5(C)C)ncc3c(=O)n2C2CC2)ccn1 [Example 2.600],

# The next lines start with the compound.
SMILES,IC50 (WEE1 kinase enzyme),IC50 (A427 cells)
CC(C)n1c(=O)c2cnc(Nc3ccc4c(c3)CCNC4)nc2n1-c1cccc(C(C)(C)O)n1 [Example 1.69],11 nM,485 nM
CC(C)n1c(=O)c2cnc(Nc3ccc4c(c3)CCNC4)nc2n1-c1ccnc(N(C)S(C)(=O)=O)c1 [Example 1.177],12 nM,1970 nM
CCn1c(=O)c2cnc(Nc3ccc4c(c3)CNCC4)nc2n1-c1cccc(N2CCCC2=O)n1 [Example 1.31],5 nM,1320 nM
CC(C)n1c(=O)c2cnc(Nc3ccc4c(c3)CCNC4)nc2n1-c1cccc(C(C)(C)C)c1 [Example 1.155],2 nM,1980 nM
CC(C)n1c(=O)c2cnc(Nc3ccc4c(c3)CCNC4)nc2n1-c1ccc(N(C)C)c(C(C)(C)C)c1 [Example 1.175],156 nM,1160 nM
CC(C)n1c(=O)c2cnc(Nc3ccc4c(c3)NCCC4)nc2n1-c1ccnc(C(C)(C)F)c1 [Example 1.168],4150 nM,4000 nM
CC(C)n1c(=O)c2cnc(Nc3ccc4c(c3)CNCC4)nc2n1-c1cccc(C(C)(C)C)c1 [Example 1.156],1 nM,1770 nM
CC(C)n1c(=O)c2cnc(Nc3ccc4c(c3)CCNC4)nc2n1-c1cccc(C2CC2)n1 [Example 1.149],3 nM,1130 nM
CC(C)(O)c1cccc(-n2c3nc(Nc4ccc5c(c4)CCNC5)ncc3c(=O)n2C2CC2)n1 [Example 1.24],23 nM,6030 nM
CCn1c(=O)c2cnc(Nc3ccc4c(c3)CNCC4)nc2n1-c1cccc(OC)n1 [Example 1.18],25 nM,7060 nM
CC(C)n1c(=O)c2cnc(Nc3ccc4c(c3)CNCC43CC3)nc2n1-c1ccnc(C(C)(C)C)c1 [Example 1.161],4 nM,240 nM
CC(n1c(=O)c2cnc(Nc3ccc4c(c3)CNCC4)nc2n1-c1cccc(C(C)(C)C)n1)C(F)(F)F (stereo not drawn) [Example 1.150],13 nM,3000 nM
CC(C)n1c(=O)c2cnc(Nc3ccc4c(c3)CNCC4(C)C)nc2n1-c1ccnc(C(C)(C)C)c1 [Example 1.162],11 nM,385 nM
CC(C)(C)c1cc(-n2c3nc(Nc4ccc5c(c4)CNCC5)ncc3c(=O)n2CC(F)(F)F)ccn1 [Example 1.174],108 nM,4000 nM
CCn1c(=O)c2cnc(Nc3cnc4c(c3)CNCC4)nc2n1-c1cccc(C(C)(C)O)n1 [Example 1.127],58 nM,> 23000 nM
CCn1c(=O)c2cnc(Nc3ccc4c(c3)CNCC43CC3)nc2n1-c1cccc(C(C)(C)O)n1 [Example 1.70],15 nM,640 nM
CC(C)n1c(=O)c2cnc(Nc3ccc4c(c3)CNCC4)nc2n1-c1cccc(C2CC2)n1 [Example 1.148],2 nM,1080 nM
CCn1c(=O)c2cnc(Nc3ccc4c(c3)CNCC4)nc2n1-c1cccc(C(=O)NC)n1 [Example 1.25],99 nM,> 30000 nM
CCn1c(=O)c2cnc(Nc3ccc4c(c3)CCNC4)nc2n1-c1cccc(OC)n1 [Example 1.23],40 nM,3210 nM
C=CCn1c(=O)c2cnc(Nc3ccc4c(c3)CNCC4)nc2n1-c1ccnc(C(C)(C)C)c1 [Example 1.158],4 nM,200 nM

SMILES,IC50 (WEE1 kinase enzyme),IC50 (A427 cells)
CCn1c(=O)c2cnc(Nc3cccc4c3CCNC4)nc2n1-c1cccc(C(C)(C)O)n1 [Example 1.125],> 5000 nM,> 30000 nM
CCn1c(=O)c2cnc(Nc3ccc4c(c3)CNCC4)nc2n1-c1ccnc(C(C)(C)C)c1 [Example 1.134],9 nM,820 nM
C=CCn1c(=O)c2cnc(Nc3ccc4c(c3)CCNC4)nc2n1-c1ccnc(C(C)(C)C)c1 [Example 1.157],5 nM,460 nM
CC(CO)n1c(=O)c2cnc(Nc3ccc4c(c3)CNCC4)nc2n1-c1cccc(C(C)(C)C)n1 (stereo not drawn) [Example 1.153],16 nM,2540 nM
CC(C)n1c(=O)c2cnc(Nc3ccc4c(c3)CNCC4)nc2n1-c1ccnc(C(C)(C)C)c1 [Example 1.137],4 nM,415 nM
CC(C)n1c(=O)c2cnc(Nc3ccc4c(c3)CNCC4)nc2n1-c1ccc(F)cc1 [Example 1.167],41 nM,2060 nM
CC(C)n1c(=O)c2cnc(Nc3ccc4c(c3)CC(N(C)C)C4)nc2n1-c1ccnc(C(C)(C)C)c1 (stereo not drawn) [Example 1.164],8 nM,485 nM
COC(=O)N1CCc2cc(Nc3ncc4c(=O)n(C(C)C)n(-c5ccnc(C(C)(C)C)c5)c4n3)ccc2C1 [Example 1.173],343 nM,2330 nM
CCn1c(=O)c2cnc(Nc3ccc4c(c3)CC(N(C)C)C4)nc2n1-c1cccc(C(C)(C)O)n1 (stereo not drawn) [Example 1.133],6 nM,583 nM
CCn1c(=O)c2cnc(Nc3ccc4c(c3)CCNC4)nc2n1-c1ccnc(C(C)(C)C)c1 [Example 1.136],7 nM,1090 nM
CC(C)n1c(=O)c2cnc(Nc3ccc4c(c3)CNCC4)nc2n1-c1cccc(C(C)(C)C)n1 [Example 1.144],0.6 nM,260 nM
CCn1c(=O)c2cnc(Nc3ccc4c(c3)CNCC4)nc2n1-c1ccccn1 [Example 1.130],18 nM,9070 nM
CC(C)n1c(=O)c2cnc(Nc3ccc4c(c3)CCNC4(C)C)nc2n1-c1ccnc(C(C)(C)C)c1 [Example 1.176],8 nM,595 nM
CC(C)n1c(=O)c2cnc(Nc3ccc4c(c3)CCNC4)nc2n1-c1cccc(C(C)(C)C)n1 [Example 1.145],3 nM,255 nM
CC(C)n1c(=O)c2cnc(Nc3ccc4c(c3)CC(N(C)C)CC4)nc2n1-c1ccnc(C(C)(C)C)c1 (stereo not drawn) [Example 1.171],6 nM,735 nM
CC(C)(C)c1cccc(-n2c3nc(Nc4ccc5c(c4)CNCC5)ncc3c(=O)n2C(C)(C)C)n1 [Example 1.151],2540 nM,3380 nM
CCn1c(=O)c2cnc(Nc3ccc4c(c3)CN(CCO)CC4)nc2n1-c1cccc(C(C)(C)O)n1 [Example 1.128],6 nM,1550 nM
CCn1c(=O)c2cnc(Nc3ccc4c(c3)CC(N(C)C)CC4)nc2n1-c1cccc(C(C)(C)O)n1 (stereo not drawn) [Example 1.135],20 nM,440 nM
CC(C)n1c(=O)c2cnc(Nc3ccc4c(c3)CNCC4)cc2n1-c1ccnc(C(C)(C)C)c1 [Example 2.744],,10400 nM
